Experimental data published in publication PMC4500499, “Azanitrile Cathepsin K Inhibitors: Effects on Cell Toxicity, Osteoblast-Induced Mineralization and Osteoclast-Mediated Bone Resorption” (PLoS ONE, 2015).

Target: T1, cathepsin K (Homo sapiens, UniProt P43235)
T1 construct: gene CTSK; recombinant human CatK
T1 sequence (P43235 115-329): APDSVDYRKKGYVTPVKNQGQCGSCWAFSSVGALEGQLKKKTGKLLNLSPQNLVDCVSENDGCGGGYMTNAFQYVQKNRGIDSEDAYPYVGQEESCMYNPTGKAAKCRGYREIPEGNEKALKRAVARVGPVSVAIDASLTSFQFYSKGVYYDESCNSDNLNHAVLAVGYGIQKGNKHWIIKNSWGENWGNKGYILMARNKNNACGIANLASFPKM
Assay: gelatin zymography with recombinant human CatK
Assay type: biochemical

IC50 [nM]	Compound
29 ± 11	CC(C)C[C@H](NC(=O)c1cccc(-c2ccc(-c3ccccc3)cc2)c1)C(=O)N(C)N(C)C#N [CKI-13]
51 ± 20	CC(C)C[C@H](NC(=O)c1ccc(-c2ccc(-c3ccccc3)cc2)cc1)C(=O)N(C)N(C)C#N [CKI-8]
